Measurements: patent US20240100023A1, “Compositions and Methods For Treating Spinal Cord Injuries” (priority 2020, published 2024)

How the values were obtained:
Rat (Wistar) = experiment: Novel object recognition memory; format: in vivo; settings: for Minimum Effective Dose, novel object recognition memory: Rat (Wistar), IP
Protocol: Additional Novel Object Recognition behavioral model studies were conducted to further elucidate the SCI recovery activities of CX717 and CX1739. Rats were habituated to a test box for two 5-minute sessions on consecutive days. Each test session consisted of two phases: in the first phase (“sample period”), two identical objects (A1 and A2) were placed in the far corners of the box, and the rats were allowed to explore the objects. After a 24 hour delay, rats were re-introduced to the arena (“test period”) now containing a third identical copy of the familiar object (A3) and a new object (B), placed in the same locations as in the first phase, and the total time spent exploring each of the objects was determined over a 3-min duration. For CX717 drug treatment, rats were dosed 30 min prior to each sample session with either 0.1, 0.3, 1.0 mg/kg CX717 (p.o.); vehicle (0.5% methylcellulose, p.o.) or 0.9 mg/kg Aricept (E2020, i.p.). The exploration times for the full 3-min were calculated and expressed as the discrimination index, d1, defined as the absolute difference in time spent exploring the novel object minus the familiar object.
For CX1739 Male Wistar rats were assessed for cognitive ability in a test apparatus comprising an open-field arena placed in a sound-attenuated room under dimmed lighting. Rat exploration and activity were captured by a digital camera, and viewed on a monitor in an adjoining area. Following a 5-minute habituation period, each animal was placed in the test arena in the presence of two identical objects (plastic shapes) and the time spent actively exploring the objects during a 5-minute test period (T1) was recorded. After 24 hours, each rat was again placed in the test arena for 5 minutes (T2) in the presence of one familiar object and one novel object, and the time spent exploring both objects was recorded. The Recognition Index was calculated as the percentage of total exploration time spent exploring the novel object during the retention session (T2), which provides the primary measure of cognitive function in this assay.
The Novel object recognition (NOR) paradigm is a rodent model of recognition learning memory retrieval and takes advantage of the spontaneous behavior of rodents to investigate a novel object compared with a familiar object. NOR has been employed extensively to indicate cognition-enhancing properties of drug candidates, predictive of therapeutic efficacy of positively-assaying drugs for reducing SCI symptoms in humans.

LTP in rat hippocampus = experiment: Induction of LTP in rat hippocampus in vivo; parameters: species or system Rat (Long Evans); settings: for Minimum Effective Dose, effect on induction of LTP in rat hippocampus: Rat (Long Evans), IP
Monkey (Rhesus) = experiment: Delayed match-to-sample test; format: in vivo, Rhesus macaque; settings: for Minimum Effective Dose, delayed match-to-sample test: Monkey (Rhesus), PO
Protocol: Further elucidating the potent behavioral and cognitive effects of exemplary ampakines useful within the invention, additional studies using the well-known Monkey Delayed Match to Sample assay were conducted. CX1739 was evaluated using aged Rhesus macaque monkeys (18 to 33 years old), undertaking the delayed match-to-sample (DMTS) task. The stimuli included red, blue, or yellow rectangles. A trial was initiated by presentation of a sample rectangle composed of one of the three colors. The sample rectangle remained in view until the monkey touched within its borders to initiate a pre-programmed delay (retention) interval. Following the delay interval, two choice rectangles were presented, with one of the two choice colors being the color matching the stimulus and the other (incorrect) color as one of the two remaining colors. A correct (matching) choice was reinforced. Non-matching choices were neither reinforced nor punished. The duration for each delay interval was adjusted for each subject until three levels of group performance accuracy approximated zero delay (85-100% of trials answered correctly), short delay interval (75-84% correct), medium delay interval (65-74% correct), and long delay interval (55-64% correct). The inter-trial interval was 5 seconds and each session consisted of 96 trials.

Swiss Webster mice = experiment: PTZ proconvulsant test; format: in vivo, Mouse; settings: 30 mg/kg or less p.o., 30 minutes before PTZ infusion
Protocol: Follow on studies of CX717 and 1739 are continuing, employing additional well-known models for SCI drug efficacy, coupled with a variety of ongoing safety studies. Preliminary safety studies already completed have included a range of toxicity studies focusing on critical convulsant risks widely observed for previously-studied ampakines. Using the well-known PTZ Proconvulsant test, non-GLP safety studies were conducted to examine proconvulsant activity of CX717. Swiss Webster mice (n=12/group) were dosed with CX717 (3, 10 or 30 mg/kg p.o.), vehicle (0.5% methocel p.o.) or a positive control, CGS8216 (10 mg/kg in 70% PEG300: 30% water i.p.). Thirty minutes later, the GABA-A antagonist, pentylenetetrazol (PTZ) was infused in the tail vein until tonic seizures were observed. The time at which the first clonic and tonic seizure was observed was noted and used to determine the dose of PTZ necessary to induce both clonic and tonic seizure.

[1] = Phase 1 studies in healthy volunteers (safety, pharmacokinetics); format: in vivo, human
adult rats = experiment: Phrenic burst amplitude after C2 spinal cord hemisection (C2Hx); format: in vivo, Rat; settings: two weeks after C2Hx, 15 mg/k, i.v.
Description: In a preliminary examination of the therapeutic potential of ampakines for treating SCI, Wollman and coworkers (2020^16) reported that ampakines may stimulate phrenic activity after incomplete cervical spinal cord injury (SCI) in anesthetized rats. […] To competently address the role of ampakines in alleviating neural and motor function deficits in SCI subjects, Applicants present herein a range of findings, illustrating a diverse array of potent ampakine activities effective for SCI treatment. Among these findings, two low impact ampakines, CX717 and CX1739, potently stimulate diaphragm muscle activation and breathing in freely moving, non-anesthetized rats following SCI. ^16 Wollman L B, Streeter K A, Fusco Gonzalez-Rothi E J, Sandhu M S, Greer J J, Fuller D D. Exp Neural. 2020 December; 334:113 doi: 10.1016/j.expneurol.2020.113465. Epub 2020 September PMID: 32949571.
Exemplifying the efficacy of combining Ampakine SCI treatment with secondary therapeutic intervention, Applicants determined in a predictive animal model that pairing ampakine treatment with a single bout of acute hypoxia (5-min, arterial partial pressure of O2˜50 mmHg) beneficially impacts phrenic bursting, with some rats showing a large facilitation that exceeds the response compared to ampakine-only treated subjects. […]

[2] = system: non-selective alpha1 adrenergic receptor; experiment: Alpha1 adrenergic receptor radioligand binding; settings: 100 μM

Structure (SMILES): O=C(c1ccc2nonc2c1)N1CCOCC1 [CX717, 1-(benzofurazan-5-ylcarbonyl)morpholine]
- d1 scores (discrimination index) compared to vehicle (Rat (Wistar); 0.3 mg/kg, 24 hour delay): significant increase
- Minimum Effective Dose, novel object recognition memory (Rat (Wistar)): 0.3 mg/kg
- Minimum Effective Dose, effect on induction of LTP in rat hippocampus (LTP in rat hippocampus): 2 mg/kg
- Minimum Effective Dose, delayed match-to-sample test (Monkey (Rhesus)): 0.8 mg/kg
- Dose of PTZ required to elicit a seizure (proconvulsant activity) (Swiss Webster mice): did not decrease the dose of PTZ required to elicit a seizure
- Half-life compared with CX516 ([1]; species not stated): significantly longer half-lives than CX516
- Increase of contralateral (CL) phrenic burst amplitude (adult rats): 47±26 % BL
- Increase of ipsilateral (IL) phrenic burst amplitude (adult rats): 61±46 % baseline, BL

Structure (SMILES): CN(C(=O)c1ccc2nonc2c1)C1CCOCC1 [CX1739, N-Methyl-N-tetrahydro-2H-pyran-4-yl-[2,1,3]-benzoxadiazole-5-carboxamide]
- Preference for novel object exploration compared with positive control (Rat (Wistar); 0.03 mg/kg): comparable to that of 3 mg/kg galantamine
- Minimum Effective Dose, novel object recognition memory (Rat (Wistar)): 0.03 mg/kg
- Effect on LTP after tetanic stimulation (LTP in rat hippocampus; 3 mg/kg, 15 minutes prior to tetanic stimulation): statistically significant increase in LTP
- Minimum Effective Dose, effect on induction of LTP in rat hippocampus (LTP in rat hippocampus): 3 mg/kg
- Minimum Effective Dose, delayed match-to-sample test (Monkey (Rhesus)): 0.3 mg/kg
- Task accuracy with the Best Dose of each subject (Monkey (Rhesus); sessions initiated 45 min after administration): statistically significant increase
- Half-life compared with CX516 ([1]; human, in vivo): significantly longer half-lives than CX516
- Inhibition of reference ligand binding, non-selective alpha1 adrenergic receptor [2]: 67%
